Values of other authors in publication PMC9311539, “Antibacterial Activity against Clinical Isolates and In Vivo Efficacy of Coralmycins” (Antibiotics, 2022).
In brackets after ≈: the same amount, converted by molar mass. Read-outs that look alike come from different tables or passages of the source.

Experiments:
E. coli ATCC 25922 [1] = test system: E. coli ATCC 25922; parameters: method as in PMID 34123255; conditions: cited from earlier work
E. coli ATCC 25922 [2] = test system: E. coli ATCC 25922; parameters: method as in PMID 34123255; conditions: 37.5 mg/kg/day; cited from earlier work
[3] = parameters: method as in PMID 34123255; conditions: cited from earlier work

CC(C)Oc1c(NC(=O)c2ccc(NC(=O)C(CC(N)=O)NC(=O)c3ccc(NC(=O)c4ccc(C#N)cc4)cc3)cc2)ccc(C(=O)Nc2ccc(C(=O)O)cc2)c1O (centres unmarked) [CN-DM-861]
MIC (E. coli ATCC 25922 [1]): 0.02 µg/mL (≈ 0.0246 µM) | in vivo effect in three mouse models (E. coli ATCC 25922 [2]): potent bactericidal effects | detection in tissues (thigh, kidney, lung) ([3]; after s.c. administration): well detected | AUC ([3]; i.v. 5 mg/kg): approximately 2 μg·h/mL | T1/2 ([3]; i.v. 5 mg/kg): approximately 1 h | Vdss ([3]; i.v. 5 mg/kg): 3.5 L/kg | bioavailability ([3]; reported): 25% | AUC/MIC ratio ([3]; s.c. 5 mg/kg, MIC against E. coli ATCC 25922): 159.5 | AUC ([3]; s.c. 5 mg/kg): 517 ng·h/mL | Cmax ([3]; s.c. 5 mg/kg): 128 ng/mL | Tmax ([3]; s.c. 5 mg/kg): 1.7 h
